Laboratory results from PubChem BioAssay AID651630 (Sanford-Burnham Center for Chemical Genomics, 2012).
Activity calls are given as the source filed them.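 Rule for the calls: active = lipid-stain IC50 at or below a set limit, with nuclear-stain toxicity IC50 at least five times higher; inactive = the rest.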

What was measured:
DAPI = assay: triacylglycerol accumulation inhibitor potency, dose response, cell-based, panel, Nile Red and DAPI fluorescence, H9c2 (AID 651630); conditions: H9c2 cells, DAPI nuclear fluorescence (cytotoxicity counter-readout), oleic acid;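 note: cells exposed to compound overnight before fixation and staining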
TAG = assay: as above; conditions: H9c2 cells, Nile Red TAG fluorescence, oleic acid

Structure (SMILES) | IC50 cytotoxicity (DAPI nuclear signal decrease) (DAPI; mean of runs) | IC50 cytotoxicity (DAPI nuclear signal decrease) (DAPI; run 1) | IC50 cytotoxicity (DAPI nuclear signal decrease) (DAPI; run 2) | IC50 (TAG; mean of runs) | IC50 (TAG; run 1) | IC50 (TAG; run 2)
COc1cc(OC)cc(C(=O)N2CC(=O)Nc3ccccc32)c1 | > 25 µM (inactive) | > 25 µM | > 25 µM | > 25 µM (inactive) | > 25 µM | > 25 µM
CN1CCCC(n2nc(Cc3ccc(Cl)cc3)c3ccccc3c2=O)CC1 (configuration not stated) | > 25 µM (inactive) | > 25 µM | > 25 µM | 18.3 µM (inactive) | 24.2 µM | 12.4 µM
CCOC(=O)c1c(C)[nH]c(C(=O)OCC(=O)NCCc2ccc(OCC)c(OCC)c2)c1C | > 25 µM (inactive) | > 25 µM | > 25 µM | > 25 µM (inactive) | > 25 µM | > 25 µM
Cc1nn2c(N3CCCC3)cc(C(C)C)nc2c1-c1ccccc1 | > 25 µM (inactive) | > 25 µM | > 25 µM | > 25 µM (inactive) | > 25 µM | > 25 µM
C#CCN(C[C@H]1[C@H](OC(=O)NCCCCCC)[C@H](OC(=O)NCCCCCC)C[C@@H](C(=O)OC)[C@H]1C(=O)OC)S(=O)(=O)c1ccc(C)cc1 | – | > 25 µM | > 25 µM | 4.91 µM | 4.31 µM | 5.5 µM
COc1ccc(NC(=O)c2nc(C)c(C3(C)CC(c4ccccc4)=NO3)s2)cc1 (configuration not stated) | > 25 µM (inactive) | > 25 µM | > 25 µM | 7.56 µM | 4.88 µM | 10.2 µM
COc1cc2c(cc1[N+](=O)[O-])-c1ccc([N+](=O)[O-])cc1C2=NNC(N)=S | > 25 µM (inactive) | > 25 µM | > 25 µM | > 25 µM (inactive) | > 25 µM | > 25 µM
O=[N+]([O-])c1ccccc1/C=C/C=N/Nc1ccc(S(=O)(=O)Nc2ccc(Cl)cc2)cc1[N+](=O)[O-] | – | > 25 µM | > 25 µM | 4.41 µM | 3.5 µM | 5.32 µM
CCOc1ccc(OCC)c(NC(=O)CN(c2ccc(C)cc2)S(=O)(=O)c2c(C)noc2C)c1 | > 25 µM (inactive) | > 25 µM | > 25 µM | 19.6 µM (inactive) | 17.1 µM | 22 µM
CC(=O)c1cccc(-c2ccnc3c2CC(C(=O)NCc2ccco2)O3)c1 (configuration not stated) | > 25 µM (inactive) | > 25 µM | > 25 µM | > 25 µM (inactive) | > 25 µM | > 25 µM
COc1cccc(C2c3cc4c(cc3OC(NNC(N)=O)C2C)OCO4)c1O (configuration not stated) | > 25 µM (inactive) | > 25 µM | > 25 µM | > 25 µM (inactive) | > 25 µM | > 25 µM
Cc1cccc2c(C(=O)N3CCN(c4ccccc4)CC3)cc(-c3ccncc3)nc12 | > 25 µM (inactive) | > 25 µM | > 25 µM | 8.06 µM | 7.82 µM | 8.31 µM
CCOc1cc2c(cc1O)CCC1C2CCC2(C)C(O)CCC12 (configuration not stated) | > 25 µM (inactive) | > 25 µM | > 25 µM | – | 17.4 µM | > 25 µM
O=c1cc(-c2ccccc2)[nH]c2ccccc12 | – | 20.5 µM | > 25 µM | 3.61 µM | 2.45 µM | 4.77 µM
C=CC[C@@H](CC(=O)N(CCO)Cc1ccccc1)C(=O)N[C@H](COC(=O)[C@@H](CC=C)Cc1ccc(F)cc1)Cc1ccccc1 | > 25 µM (inactive) | > 25 µM | > 25 µM | 6.97 µM | 7.28 µM | 6.67 µM
Cc1nn(-c2ccc([N+](=O)[O-])cc2)c2c1C(c1ccc(OC(F)F)cc1)N1C(=N2)C(=O)Nc2ccccc21 (configuration not stated) | > 25 µM (inactive) | > 25 µM | > 25 µM | 8.6 µM | 6.39 µM | 10.8 µM
COc1ccc(C[C@H]2CN3C(=NC[C@@H]3Cc3ccc(O)cc3)N2CCNC(=O)c2ccc(C)c(Br)c2)cc1 | – | 24 µM | > 25 µM | > 25 µM (inactive) | > 25 µM | > 25 µM
